The assay addresses T1, Glucocorticoid receptor (Homo sapiens, UniProt P04150).
T1 sequence (P04150 whole entry): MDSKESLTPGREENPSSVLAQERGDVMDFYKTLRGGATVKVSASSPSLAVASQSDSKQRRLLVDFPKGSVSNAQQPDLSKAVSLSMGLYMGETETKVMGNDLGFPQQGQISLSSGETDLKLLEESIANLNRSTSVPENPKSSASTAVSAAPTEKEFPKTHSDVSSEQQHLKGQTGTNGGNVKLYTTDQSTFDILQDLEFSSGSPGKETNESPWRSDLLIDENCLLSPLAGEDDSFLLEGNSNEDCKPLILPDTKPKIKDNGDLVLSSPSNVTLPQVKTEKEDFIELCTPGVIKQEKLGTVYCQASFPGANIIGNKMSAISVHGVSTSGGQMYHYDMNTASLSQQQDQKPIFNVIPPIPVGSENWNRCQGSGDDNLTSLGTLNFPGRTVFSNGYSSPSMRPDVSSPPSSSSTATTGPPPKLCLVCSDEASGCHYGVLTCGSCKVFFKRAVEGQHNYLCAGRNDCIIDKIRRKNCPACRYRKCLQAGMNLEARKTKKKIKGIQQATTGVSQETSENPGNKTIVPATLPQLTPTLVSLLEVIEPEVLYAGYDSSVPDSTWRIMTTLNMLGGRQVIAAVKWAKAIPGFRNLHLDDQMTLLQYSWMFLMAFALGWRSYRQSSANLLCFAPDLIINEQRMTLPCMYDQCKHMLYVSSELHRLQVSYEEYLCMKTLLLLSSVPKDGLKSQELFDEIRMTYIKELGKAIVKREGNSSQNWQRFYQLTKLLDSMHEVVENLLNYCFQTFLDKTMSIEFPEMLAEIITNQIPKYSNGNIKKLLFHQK
Nature of the assay: Activity at glucocorticoid receptor in human A549 cells assessed as effect on GRE promoter response by luciferase reporter assay. It is filed as cell-based. (A reporter such as luciferase makes a cellular process visible.)

In general, EC50 refers to the concentration that produces a half-maximal response. In the case of `CCCC(CC(=O)O)C1=C2O[C@H](C(C)(C)O)C[C@@]23C[C@H](CC(O)C(C)(C)O)C(C)(C)[C@@](C(=O)C(C)CC)(C1=O)C3=O` (some centres not stated) [SUNDAICUMONE A], the EC50 was found to be 173 µM.
For the compound `CCCC(CC(=O)O)C1=C2O[C@H](C(C)(C)O)C[C@@]23C[C@H](CC=C(C)C)C(C)(C)[C@@](C(=O)C(C)CC)(C1=O)C3=O` (some centres not stated) [SUNDAICUMONE B], the EC50 was 75 µM.
